# Source: article PMC4104029, “Mechanism of Action of Compound-13: An α1-Selective Small Molecule Activator of AMPK” (Chemistry & Biology, 2014)
# Assays:
# [1] = tested on: AMPK signaling in mouse primary hepatocytes; assay: AMPK signaling in primary hepatocytes, western blotting; assay type: cell-based; conditions: 30 μM STO-609 for 30 min, 1 μM ionomycin
# Description: (§1) Figure 4 The C2 Prodrug, C13, Potently Activates AMPK in Mouse Primary Hepatocytes (A) Isolated mouse hepatocytes were incubated with vehicle or the indicated concentrations of C13 for 1 hr. AICAR (0.5 mM) was included as a positive control. Cell lysates were analyzed using western blotting with the indicated antibodies. (B) AMPKα1 or AMPKα2 complexes were immunoprecipitated from hepatocyte extracts prepared as described in (A) and assayed for kinase activity using 0.2 mM AMARA and 0.1 mM ATP. Results are expressed as the mean Pi incorporated in picomoles per minute-milligram ± SD. (C) Hepatocytes were stimulated with 30 μM C13 for the indicated times prior to harvesting, with AICAR (0.5 mM, 1 hr) as positive control. Lysates were analyzed using western blotting with the indicated antibodies. (D) Mouse hepatocytes were treated with the indicated compounds for 1 hr, and adenine nucleotide ratios were determined using capillary electrophoresis of perchloric acid extracts. (E) Mouse hepatocytes were preincubated with 30 μM STO-609 for 30 min prior to stimulation with 30 μM C13 for 1 hr or with 1 μM ionomycin for 30 min. Lysates were analyzed using western blotting with the indicated antibodies. (F) Wild-type (LKB1^+/+) or LKB1-null (LKB1^−/−) mouse embryonic fibroblasts were incubated with the indicated concentrations of C13 for 1 hr. AICAR (2 mM) was included as a positive control. Lysates were analyzed using western blotting with the indicated antibodies. Results are representative of three independent experiments. […]
# Isolation of primary hepatocytes. Hepatocytes were isolated from fasted mice by collagenase digestion (Berry and Friend, 1969). Cells were seeded in M199 containing 100 U/ml penicillin G, 100 µg/ml streptomycin, 0.1 % (w/v) BSA, 10 % (v/v) FBS, 10 nM insulin, 200 nM triiodothyronine and 100 nM dexamethasone. Post attachment (3-4 h), cells were cultured overnight in M199 supplemented with antibiotics and 100 nM dexamethasone and used for experiments the following morning.
# Western blotting. Cells were stimulated as indicated, rinsed with ice-cold PBS and lysed with 50 mM tris pH 7.5, 1 mM EDTA, 1 mM EGTA, 0.27 M sucrose, 1 % (w/v) Triton X-100, 20 mM glycerol-2-phosphate, 50 mM NaF, 5 mM Na4P2O7, 1 mM Na3VO4, 1 mM DTT, 0.5 mM PMSF, 1 mM benzamidine and 1 µM microcystin-LR. Lysates were clarified at 3000 g for 5 min at 4 °C and normalised using Bradford reagent and BSA as standard. Lysates (20 µg) were denatured in Laemlli buffer, separated on 7.5 % tris-glycine gels and transferred to PVDF in Towbin buffer. Membranes were blocked in 5 % (w/v) milk for 1 h at RT and incubated overnight in the indicated primary antibodies at 4 °C. Membranes were developed using HRP-conjugated antibodies and ECL reagent.
# Nucleotide measurements. Cultured hepatocytes were incubated with the indicated compounds and washed with ice-cold 0.9 % (w/v) saline before extraction in 5 % perchloric acid. Precipitated material was removed by centrifugation (13,000 RPM, 3 min) and supernatant neutralised with 1:1 trioctylamine:Freon-113 (Khym, 1975). Nucleotides were separated and quantified by capillary electrophoresis using a Beckman P/ACE instrument as previously described (Hawley, et al., 2010).
# [2] = tested on: LKB1−/− mouse embryonic fibroblasts; assay: AMPK and ACC phosphorylation in LKB1-null fibroblasts; assay type: cell-based; conditions: 1 hr; AICAR 2 mM
# Description: AICAR (0.5 mM) was included as a positive control. Cell lysates were analyzed using western blotting with the indicated antibodies. (B) AMPKα1 or AMPKα2 complexes were immunoprecipitated from hepatocyte extracts prepared as described in (A) and assayed for kinase activity using 0.2 mM AMARA and 0.1 mM ATP. Results are expressed as the mean Pi incorporated in picomoles per minute-milligram ± SD. (C) Hepatocytes were stimulated with 30 μM C13 for the indicated times prior to harvesting, with AICAR (0.5 mM, 1 hr) as positive control. Lysates were analyzed using western blotting with the indicated antibodies. (D) Mouse hepatocytes were treated with the indicated compounds for 1 hr, and adenine nucleotide ratios were determined using capillary electrophoresis of perchloric acid extracts. […] Lysates were analyzed using western blotting with the indicated antibodies. (F) Wild-type (LKB1^+/+) or LKB1-null (LKB1^−/−) mouse embryonic fibroblasts were incubated with the indicated concentrations of C13 for 1 hr. AICAR (2 mM) was included as a positive control. Lysates were analyzed using western blotting with the indicated antibodies.
# mouse hepatocytes = assay: Adenine nucleotide ratios by capillary electrophoresis; assay type: cell-based; conditions: 1 hr; C13 up to 100 μM
# Description: as §1
# Isolation of primary hepatocytes. Hepatocytes were isolated from fasted mice by collagenase digestion (Berry and Friend, 1969). Cells were seeded in M199 containing 100 U/ml penicillin G, 100 µg/ml streptomycin, 0.1 % (w/v) BSA, 10 % (v/v) FBS, 10 nM insulin, 200 nM triiodothyronine and 100 nM dexamethasone. […]
# Nucleotide measurements. […] Nucleotides were separated and quantified by capillary electrophoresis using a Beckman P/ACE instrument as previously described (Hawley, et al., 2010).
# β1-KO hepatocytes [3] = assay: AMPK signaling, western blotting; assay type: cell-based, mouse; conditions: 1 hr; A769662 100 μM
# Description: (§2) Figure 7 C13 Activates Both β1 and β2 Complexes in Mouse Hepatocytes (A) Hepatocytes from WT, AMPKβ1^−/−, and AMPKβ2^−/− mice were incubated with the indicated concentrations of C13 for 1 hr. A769662 (100 μM) was included as a positive control. Lysates were analyzed using western blotting with the indicated antibodies. (B) Mouse hepatocytes from the indicated genotypes were treated with the indicated concentrations of C13 and labeled with [^3H]acetate for 4 hr. Lipogenesis was estimated from the incorporation of acetate into total lipids. Results are expressed as the mean acetate incorporated in micromoles per gram-hour ± SD.
# WT and β2-KO hepatocytes = assay: AMPK signaling, western blotting; assay type: cell-based, mouse; conditions: 1 hr; A769662 100 μM
# Description: as §2
# β1-KO hepatocytes [4] = assay: Lipogenesis, [3H]acetate incorporation into total lipids; assay type: cell-based, mouse; conditions: 100 μM, 4 hr
# Description: as §2
# Lipid synthesis was determined by labeling adherent cultures of primary hepatocytes with [1-^14C]acetate. After overnight culture, hepatocytes (5 × 10^5) were washed with warm PBS and allowed to rest for 3 hr in fresh M199. Cells were treated with vehicle (0.1% DMSO) or the indicated compounds and labeled with 1 mCi⋅mmol^−1 [1-^14C]acetate for 3 hr. […] Lipogenesis in hepatocytes from AMPKβ1/β2-KO mice was determined in media containing [^3H]acetate (0.2 mCi⋅mmol^−1). After 4 hr labeling, total lipids were extracted using the method of [Bligh and Dyer (1959)], and incorporated [^3H] was determined by scintillation counting. The results are expressed as micromoles acetate incorporated per gram-hour.
# AMPK α1β1γ1 = biological target: T1, AMPK α1β1γ1 (Homo sapiens, UniProt P54619+Q13131); assay: AMPK phosphotransferase assay, allosteric activation, cell-free; assay type: biochemical; conditions: 1 μM C2, ADP 0–200 μM
# T1 construct: purchased Sigma and Signalchem; host or cells: Spodoptera frugiperda (Sf9)
# T1 sequence (Q13131 whole entry): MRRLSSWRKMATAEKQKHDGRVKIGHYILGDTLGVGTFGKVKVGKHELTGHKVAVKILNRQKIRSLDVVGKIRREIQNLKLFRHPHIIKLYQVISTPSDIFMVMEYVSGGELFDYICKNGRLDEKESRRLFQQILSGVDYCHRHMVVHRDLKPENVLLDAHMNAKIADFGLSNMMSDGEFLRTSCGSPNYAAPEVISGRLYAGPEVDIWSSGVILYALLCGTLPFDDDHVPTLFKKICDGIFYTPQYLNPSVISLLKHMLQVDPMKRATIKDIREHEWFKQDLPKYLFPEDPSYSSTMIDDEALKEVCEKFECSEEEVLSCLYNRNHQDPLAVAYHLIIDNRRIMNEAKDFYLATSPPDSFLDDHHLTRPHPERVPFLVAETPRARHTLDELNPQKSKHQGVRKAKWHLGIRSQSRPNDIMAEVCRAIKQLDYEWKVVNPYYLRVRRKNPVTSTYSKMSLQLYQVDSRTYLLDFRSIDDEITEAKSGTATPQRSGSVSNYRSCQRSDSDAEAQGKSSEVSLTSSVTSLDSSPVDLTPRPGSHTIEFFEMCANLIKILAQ
# T1 sequence (Q9Y478 whole entry partner): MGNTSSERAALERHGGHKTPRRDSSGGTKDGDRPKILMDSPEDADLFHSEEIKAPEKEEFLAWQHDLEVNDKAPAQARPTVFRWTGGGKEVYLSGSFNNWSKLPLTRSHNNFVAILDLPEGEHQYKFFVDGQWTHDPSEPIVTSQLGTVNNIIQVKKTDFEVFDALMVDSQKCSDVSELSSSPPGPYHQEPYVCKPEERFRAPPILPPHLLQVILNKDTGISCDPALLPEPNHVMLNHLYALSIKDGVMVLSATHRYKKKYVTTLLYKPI
# T1 sequence (P54619 whole entry): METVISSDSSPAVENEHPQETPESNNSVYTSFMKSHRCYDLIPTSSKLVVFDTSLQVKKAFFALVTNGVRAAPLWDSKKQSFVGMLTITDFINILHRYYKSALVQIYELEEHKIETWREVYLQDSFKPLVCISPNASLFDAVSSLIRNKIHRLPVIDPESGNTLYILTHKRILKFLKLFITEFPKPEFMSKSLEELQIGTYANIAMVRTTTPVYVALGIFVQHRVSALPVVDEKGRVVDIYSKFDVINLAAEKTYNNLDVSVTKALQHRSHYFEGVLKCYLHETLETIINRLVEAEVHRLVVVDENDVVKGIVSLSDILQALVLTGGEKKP
# Description: Figure 1 The AMP Analog C2 Is a Potent AMPK Activator in Cell-Free Assays with Selectivity for α1 Complexes (A) The structure of the endogenous activator of AMPK, AMP; the AMP mimetic, C2; and the classical AMP mimetic, ZMP, and other AMPK activators are shown. […] (B) Recombinant AMPK complexes (α1β1γ1, α2β1γ1, α1β1γ2, and α1β2γ1) expressed in Spodoptera frugiperda were assayed for allosteric activation by AMP or C2. Results are expressed as the increase in activity relative to controls without ligand and represent the mean ± SD for three independent experiments. (C) Enzymes allosterically regulated by AMP (PFK1 and FBP1) or using AMP as a substrate (AMPD1, AK, and 5′-NT) were assayed in the presence of C2 (≤ 100 μM). Enzymes allosterically regulated by AMP were screened for both agonism and antagonism, the latter in the presence of AMP at ≈ EC50. All enzymes were unaffected by [C2] ≤ 100 μM. Representative data are shown for the effects of AMP and C2 on PFK1 and FBP1 activity. Results are representative of three independent experiments conducted on one enzyme preparation. TEXT PRINTED IN THE PICTURE: (B) C2: α1β1γ1: EC50: 0.011 ± 0.001 μM; α2β1γ1: EC50: 0.015 ± 0.003 μM; α1β1γ2: EC50: 0.024 ± 0.004 μM; α1β2γ1: EC50: 0.015 ± 0.002 μM | (B) AMP: α1β1γ1: EC50: 3.7 ± 0.6 μM; α2β1γ1: EC50: 3.2 ± 0.2 μM; α1β1γ2: EC50: 2.5 ± 0.3 μM; α1β2γ1: EC50: 3.2 ± 0.4 μM | (C) C2: PFK1: EC50: ND; FBP1: IC50: ND | (C) AMP: PFK1: EC50: 33 ± 3 μM; FBP1: IC50: 5 ± 0.2 μM […]
# We initially compared the ability of C2 and AMP to activate various recombinant human AMPK complexes, expressed in insect cells, in cell-free assays (Figure 1B). As reported previously using rat liver complexes separated by immunoprecipitation ([Salt et al., 1998]), the allosteric activation of α1 complexes by AMP was less than that of α2 complexes. […] Similar results were obtained with other permutations of β and γ subunits in complex with α2 (data not shown). We also tested the effects of C2 and AMP on recombinant human α1β1γ1 and α2β1γ1 complexes expressed in E. coli and obtained similar results (data not shown).
# AMPK phosphotransferase activity was assayed in reactions (50 μl) containing 50 mM HEPES, pH 7.4, 10 mM MgCl2, 0.1 mM EGTA, 1 mM DTT, 0.01% BRIJ-35, 100 μM [γ-^32P]ATP (∼250 CPM⋅pmol^−1) and 200 μM AMARA (AMARAASAAALARRR). Reactions were started by the addition of AMPK (5 mU), incubated for 20 min at 30°C and quenched by spotting onto P81 and immersion in 75 mM H3PO4. Washed filters were dried and [^32P] incorporation determined by Cherenkov counting. AMPK activity in cell extracts was determined by immunoprecipitation with AMPKα1 or AMPKα2 antibodies from 50 μg material, as previously described ([Hunter et al., 2011]). […]
structure (smiles),measurement,setting,value
"O=C(O)c1ccc2c3c1cccc3c(=O)n1c3ccccc3nc21 [STO-609, reference compound]",phosphorylation of AMPK and ACC by ionomycin after prior incubation,[1],almost completely abolished
"NC(=O)c1ncn([C@@H]2O[C@H](CO)[C@@H](O)[C@H]2O)c1N [AICAR, 5-aminoimidazole-4-carboxamide riboside, reference compound]",compound-induced phosphorylation of AMPK and ACC,[2],abolished
OO [Compound H2O2],ADP:ATP and AMP:ATP ratios,mouse hepatocytes,increased
"N#Cc1c(O)c2c(-c3ccc(-c4ccccc4O)cc3)csc2[nH]c1=O [Compound A769662, reference compound]",stimulation of AMPK (Thr172 phosphorylation),β1-KO hepatocytes [3],failed to stimulate
same,"phosphorylation of Thr172 and ACC, as well as Raptor",WT and β2-KO hepatocytes,robustly stimulated
same,suppression of lipogenesis,β1-KO hepatocytes [4],failed to suppress lipogenesis
"Nc1ncnc2c1ncn2[C@@H]1O[C@H](COP(=O)(O)OP(=O)(O)O)[C@@H](O)[C@H]1O [ADP, reference compound]",effect on activation by C2,AMPK α1β1γ1,antagonized
"O=[N+]([O-])c1ccc(O)c([N+](=O)[O-])c1 [DNP, 2,4-dinitrophenol]",ADP:ATP and AMP:ATP ratios,mouse hepatocytes,increased
